Twelve compounds from US11345711B2, “8,9-dihydroimidazo[1,2-a]pyrimido[5,4-e]pyrimidin-5(6H)-ones” (IMPACT THERAPEUTICS (SHANGHAI), INC, priority 2016, dated 2022) can be followed below.

Like-named read-outs stand apart in the source and are kept apart here.

One test has as its system NCI-H1299 cells. As to the kind of experiment: MTT based cell viability assay on NCI-H1299 cells. The note with it: Homo sapiens, read-out: IC50, growth inhibition of NCI-H1299 cells. As to the method: Determination of the cell growth inhibiting activity of 6-(2-chlorophenyl)-2-((4-(4-methylpiperazin-1-yl)phenyl)amino)-8,9-dihydroimidazo[1,2-a]pyrimido[5,4-e]pyrimidin-5(6H)-one and analogs on NCI-H1299 cells using a MTT based cell viability assay
(§1) The thawed NCI-H1299 cells were cultured and passaged to the third generation, and the growth state was good and the confluence was about 90%, which began to be used in the experiment. The NCI-H1299 cells were digested with trypsin, centrifuged at 800 rpm for 5 min, the supernatant was discarded, resuspended with fresh culture group, and counted. 1000 Cells are seeded to each well of a 96-well plate. The cells are incubated at 37° C. in a 5% CO2 cell culture incubator overnight. The tested sample (including the tested compound and the reference compound AZD1775) was diluted continuously to 8 concentrations (the last concentration was negative control of DMSO) with a 1:3 and 1:10 dilution in DMSO respectively: 10 μM, 3.3 μM, 1 μM, 0.33 μM, 0.1 μM, 0.033 μM, 0.01 μM, 0 μM (the final concentration of DMSO was 1‰). 5 μL of each concentration was added to 120 μL of culture medium (25 times diluted), and the mixture was shaken well. The overnight cells were taken and the culture medium was removed, 195 μL of fresh culture medium was added to each well, and 5 μL of diluted culture medium containing the corresponding concentration of the tested sample was added respectively, and the culture plate was then placed in the 5% CO2 cell culture incubator at 37° C. for 3 d. After removing the original solution and adding 100 μL of fresh serum-free DMEM culture medium containing MTT (0.5 mg/mL) per well, the culture was continued. The original solution was removed after 4 hrs and 100 μl DMSO was added to each well. The 96-well cell culture plates were shaken away from light for 10 min and readed in a multifunctional reader at 552/630/690 nm to give absorption values (OD values). The data were analyzed using a commercial graphic software (Graph Pad Prism 5.0) and the inhibitory activity of the compound on cell proliferation was plotted in terms of cell survival and compound concentration. The IC50 values were fitted by the S-shaped dose-response curve equation as follows: Y=100/(1+10^(Log C−Log IC50)), where C was the concentration of testing compounds.

In the next test the test system is LoVo cells. As to the kind of experiment: MTT based cell viability assay on LoVo cells. Conditions: Homo sapiens, LoVo, 72 h, 3 d, read-out: IC50, growth inhibition of LoVo cells. As to the method:
Determination of the cell growth inhibiting activity of 6-(2-chlorophenyl)-2-((4-(4-methylpiperazin-1-yl)phenyl)amino)-8,9-dihydroimidazo[1,2-a]pyrimido[5,4-e]pyrimidin-5(6H)-one and analogs on LoVo cells using a MTT based cell viability assay
as §1, with “LoVo” for “NCI-H1299”, “medium,” for “group,”, “6000” for “1000”, “1%).” for “1‰).”, “C-Log” for “C−Log”

The target of a further test is Wee1 (h) (Homo sapiens, UniProt P30291). Description: Wee1 kinase (h) detection method, [γ-33P]-ATP filter assay. In kind it is biochemical. As to the method:
Determination of the inhibitory effect of 6-(2-chlorophenyl)-2-((4-(4-methylpiperazin-1-yl)phenyl)amino)-8,9-dihydroimidazo[1,2-a]pyrimido[5,4-e]pyrimidin-5(6H)-one and Analogs on the Enzyme Activity of Wee1 Kinase by Using the Wee1 Kinase (h) Detection Method
Then the stock solution of all compounds under test with 50× concentration in 100% DMSO was added to make the final concentration of 10/1/0.1/0.01 μM, and then mixed the mixture well. The reaction is initiated by the addition of the Mg/ATP mix. After incubation for 40 minutes at room temperature, the reaction is stopped by the addition of phosphoric acid to a concentration of 0.5%. […] Each compound sample is duplicated in duplicate. The negative control was lack of all the components of Wee1 enzyme, and the positive was addition of 30% phosphoric acid to terminate the reaction. The Wee1 inhibitor AZD1775 was detected at 10 μM at the same experiment condition.

Sequence of Wee1 (h) (P30291 whole entry): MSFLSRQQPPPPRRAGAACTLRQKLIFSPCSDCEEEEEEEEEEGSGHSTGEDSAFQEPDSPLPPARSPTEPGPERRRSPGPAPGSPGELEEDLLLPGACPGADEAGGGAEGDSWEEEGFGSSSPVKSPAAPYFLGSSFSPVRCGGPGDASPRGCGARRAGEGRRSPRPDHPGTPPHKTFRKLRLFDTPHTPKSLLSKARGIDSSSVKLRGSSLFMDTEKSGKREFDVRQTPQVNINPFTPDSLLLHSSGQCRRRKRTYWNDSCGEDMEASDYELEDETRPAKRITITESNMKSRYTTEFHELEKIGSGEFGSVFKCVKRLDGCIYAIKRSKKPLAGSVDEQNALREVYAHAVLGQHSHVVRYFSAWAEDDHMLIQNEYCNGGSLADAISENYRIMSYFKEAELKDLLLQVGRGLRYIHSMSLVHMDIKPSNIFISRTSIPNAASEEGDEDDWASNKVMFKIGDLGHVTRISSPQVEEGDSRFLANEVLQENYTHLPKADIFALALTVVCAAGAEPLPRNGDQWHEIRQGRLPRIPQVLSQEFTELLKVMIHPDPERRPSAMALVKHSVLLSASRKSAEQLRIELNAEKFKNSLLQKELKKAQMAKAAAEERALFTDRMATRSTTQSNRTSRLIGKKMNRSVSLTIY

As to `CN1CCN(c2c(Cl)cc(Nc3ncc4c(n3)N3CCN=C3N(c3c(Cl)cccc3Cl)C4=O)cc2Cl)CC1` [Example 150, 6-(2,6-Dichlorophenyl)-2-((3,5-dichloro-4-(4-methylpiperazin-1-yl)phenyl)amino)-8,9-dihydroimidazo[1,2-a]pyrimido[5,4-e]pyrimidin-5(6H)-one], the IC50 was determined as 347 nM in the test with NCI-H1299 cells (NCI-H1299, NCI-H1299 cells) and 116 nM with LoVo cells. Also, the entries for the “Inh. (%) of Wee1 kinase enzyme activity” value on Wee1 (h) (C 0.01 μm compound), on Wee1 (h) (C 0.1 μm compound) and on Wee1 (h) (C 1 μm compound) were 20%, 81% and 93%, respectively.
Consider `CN1CCN(c2c(Cl)cc(Nc3ncc4c(n3)N3CCN=C3N(c3c(Cl)cccc3Br)C4=O)cc2Cl)CC1` [Example 164, 6-(2-Bromo-6-chlorophenyl)-2-((3,5-dichloro-4-(4-methylpiperazin-1-yl)phenyl)amino)-8,9-dihydroimidazo[1,2-a]pyrimido[5,4-e]pyrimidin-5(6H)-one], for which the IC50 in the test on NCI-H1299 cells (NCI-H1299, NCI-H1299 cells) was 159 nM; with LoVo cells it was 101 nM. In addition, the “Inh. (%) of Wee1 kinase enzyme activity” value was determined as 17% at Wee1 (h) (C 0.01 μm compound), 68% at Wee1 (h) (C 0.1 μm compound) and 97% at Wee1 (h) (C 1 μm compound).
As for `CN1CCN(c2ccc(Nc3ncc4c(n3)N3CCN=C3N(c3cccc(Cl)c3Cl)C4=O)cc2)CC1` [Example 91, 6-(2,3-Dichlorophenyl)-2-((4-(4-methylpiperazin-1-yl)phenyl)amino)-8,9-dihydroimidazo[1,2-a]pyrimido[5,4-e]pyrimidin-5(6H)-one], the values for the IC50 with NCI-H1299 cells (NCI-H1299 cells) and with LoVo cells were 2360 nM and 185 nM, respectively. At Wee1 (h) (C 1 μm compound), the “Inh. (%) of Wee1 kinase enzyme activity” value is recorded as 75%.
For `CN1CCN(c2ccc(Nc3ncc4c(n3)N3CCN=C3N(c3ncccn3)C4=O)cc2)CC1` [Example 92, 6-(Pyrimidin-2-yl)-2-((4-(4-methylpiperazin-1-yl)phenyl)amino)-8,9-dihydroimidazo[1,2-a]pyrimido[5,4-e]pyrimidin-5(6H)-one], the IC50 was over 10000 nM with NCI-H1299 cells (NCI-H1299 cells) and over 100000 nM in the test on LoVo cells. Further, the “Inh. (%) of Wee1 kinase enzyme activity” value on Wee1 (h) (C 1 μm compound) is 1%.
For the compound `Cc1cccc(C)c1N1C(=O)c2cnc(Nc3ccc4c(c3)CN(C)CC4)nc2N2CCN=C21` [Example 15, 6-(2,6-Dimethylphenyl)-2-((2-methyl-1,2,3,4-tetrahydroisoquinolin-7-yl)amino)-8,9-dihydroimidazo[1,2-a]pyrimido[5,4-e]pyrimidin-5(6H)-one], the IC50 came to 966 nM in the test on NCI-H1299 cells (NCI-H1299 cells) and 1730 nM in the test with LoVo cells. Moreover, on Wee1 (h) (C 1 μm compound), the “Inh. (%) of Wee1 kinase enzyme activity” value is given as 89%.
As for `C[C@@H]1CN(c2ccc(Nc3ncc4c(n3)N3CCN=C3N(c3c(F)cccc3Cl)C4=O)c(F)c2)C[C@H](C)N1C` [Example 37, 6-(2-Chloro-6-fluorophenyl)-2-((2-fluoro-4-((3S,5R)-3,4,5-trimethylpiperazin-1-yl)phenyl)amino)-8,9-dihydroimidazo[1,2-a]pyrimido[5,4-e]pyrimidin-5(6H)-one], the IC50 in the test with NCI-H1299 cells (NCI-H1299 cells) was over 10000 nM; in the test with LoVo cells, over 100000 nM. Further, the “Inh. (%) of Wee1 kinase enzyme activity” value on Wee1 (h) (C 1 μm compound) stood at 1%.
Consider `Cc1cc(Nc2ncc3c(n2)N2CCN=C2N(c2c(F)cccc2Cl)C3=O)cc(F)c1N1CCC(N(C)C)CC1` [Example 120, 6-(2-Chloro-6-fluorophenyl)-2-((3-fluoro-5-methyl-4-(4-(dimethylamino)piperidin-1-yl)phenyl)amino)-8,9-dihydroimidazo[1,2-a]pyrimido[5,4-e]pyrimidin-5(6H)-one], for which the 50% inhibitory concentration (IC50) came out at 59.3 nM with NCI-H1299 cells (NCI-H1299, NCI-H1299 cells) and 35.9 nM in the test with LoVo cells. The “Inh. (%) of Wee1 kinase enzyme activity” value at Wee1 (h) (C 0.01 μm compound) came out at 16%; at Wee1 (h) (C 0.1 μm compound), 80%; on Wee1 (h) (C 1 μm compound) it was 98%.
As to `C[C@@H]1CN(c2ccc(Nc3ncc4c(n3)N3CCN=C3N(c3c(Cl)cccc3Cl)C4=O)c(C(F)(F)F)c2)C[C@H](C)N1C` [Example 68, 6-(2,6-Dichlorophenyl)-2-((2-trifluoromethyl-4-((3S,5R)-3,4,5-trimethylpiperazin-1-yl)phenyl)amino)-8,9-dihydroimidazo[1,2-a]pyrimido[5,4-e]pyrimidin-5(6H)-one], the figures for the half-maximal inhibitory concentration (IC50) in the test on NCI-H1299 cells (NCI-H1299 cells) and in the test with LoVo cells were over 10000 nM and over 100000 nM, respectively. The “Inh. (%) of Wee1 kinase enzyme activity” value at Wee1 (h) (C 1 μm compound) is given as 6%.
Consider `CN1Cc2cc(Nc3ncc4c(n3)N3CCN=C3N(c3c(F)cccc3Cl)C4=O)ccc2C2(CC2)C1` [Example 10, 6-(2-Chloro-6-fluorophenyl)-2-((2′-methyl-2′,3′-dihydro-1′H-spiro[cyclopropane-1,4′-isoquinolin]-7′-yl)amino)-8,9-dihydroimidazo[1,2-a]pyrimido[5,4-e]pyrimidin-5(6H)-one], for which the IC50 in the test on NCI-H1299 cells (NCI-H1299 cells) was determined as 172 nM; in the test on LoVo cells, 88.7 nM. Besides, the “Inh. (%) of Wee1 kinase enzyme activity” value on Wee1 (h) (C 0.01 μm compound) came out at 46%; on Wee1 (h) (C 0.1 μm compound), 93%; on Wee1 (h) (C 1 μm compound) it was 98%.
As for `C[C@@H]1CN(c2ccc(Nc3ncc4c(n3)N3CCN=C3N(c3c(Cl)cccc3Cl)C4=O)c(Cl)c2)C[C@H](C)N1C` [Example 67, 6-(2,6-Dichlorophenyl)-2-((2-chloro-4-((3S,5R)-3,4,5-trimethylpiperazin-1-yl)phenyl)amino)-8,9-dihydroimidazo[1,2-a]pyrimido[5,4-e]pyrimidin-5(6H)-one], the IC50 in the test with NCI-H1299 cells (NCI-H1299 cells) was over 10000 nM; with LoVo cells, over 100000 nM. In addition, the “Inh. (%) of Wee1 kinase enzyme activity” value at Wee1 (h) (C 1 μm compound) is recorded as 24%.
For `CN1CCN(c2ccc(Nc3ncc4c(n3)N3CCN=C3N(c3c(F)cccc3Cl)C4=O)cc2[N+](=O)[O-])CC1` [Example 55, 6-(2-Chloro-6-fluorophenyl)-2-((4-(4-methylpiperazin-1-yl)-3-nitrophenyl)amino)-8,9-dihydroimidazo[1,2-a]pyrimido[5,4-e]pyrimidin-5(6H)-one], the IC50 in the test with NCI-H1299 cells (NCI-H1299 cells) was over 10000 nM; in the test on LoVo cells it was over 100000 nM. Also, the “Inh. (%) of Wee1 kinase enzyme activity” value on Wee1 (h) (C 1 μm compound) is reported as 12%.
Consider `Cc1cc(Nc2ncc3c(n2)N2CCN=C2N(c2c(Cl)cccc2Cl)C3=O)cc(Br)c1N1CCN(C)CC1` [Example 156, 6-(2,6-Dichlorophenyl)-2-((3-bromo-5-methyl-4-(4-methylpiperazin-1-yl)phenyl)amino)-8,9-dihydroimidazo[1,2-a]pyrimido[5,4-e]pyrimidin-5(6H)-one], for which the IC50 in the test on NCI-H1299 cells (NCI-H1299, NCI-H1299 cells) is 150 nM; with LoVo cells, 62.7 nM. In addition, the “Inh. (%) of Wee1 kinase enzyme activity” value at Wee1 (h) (C 0.01 μm compound) is 19%; at Wee1 (h) (C 0.1 μm compound), 81%; at Wee1 (h) (C 1 μm compound), 96%.
